These compounds were tested against Human CARM1 (PRMT4) (Homo sapiens (Human), UniProt Q86X55) (assay: CARM1 enzyme assay on peptide substrate (3H-SAM Flashplate)). Conditions: Biochemical potencies, classification codes; read-out: Biochem IC50.
Human CARM1 (PRMT4), sequence (Q86X55 other isoform, or with tags, fused parts or gaps isoform Q86X55-1): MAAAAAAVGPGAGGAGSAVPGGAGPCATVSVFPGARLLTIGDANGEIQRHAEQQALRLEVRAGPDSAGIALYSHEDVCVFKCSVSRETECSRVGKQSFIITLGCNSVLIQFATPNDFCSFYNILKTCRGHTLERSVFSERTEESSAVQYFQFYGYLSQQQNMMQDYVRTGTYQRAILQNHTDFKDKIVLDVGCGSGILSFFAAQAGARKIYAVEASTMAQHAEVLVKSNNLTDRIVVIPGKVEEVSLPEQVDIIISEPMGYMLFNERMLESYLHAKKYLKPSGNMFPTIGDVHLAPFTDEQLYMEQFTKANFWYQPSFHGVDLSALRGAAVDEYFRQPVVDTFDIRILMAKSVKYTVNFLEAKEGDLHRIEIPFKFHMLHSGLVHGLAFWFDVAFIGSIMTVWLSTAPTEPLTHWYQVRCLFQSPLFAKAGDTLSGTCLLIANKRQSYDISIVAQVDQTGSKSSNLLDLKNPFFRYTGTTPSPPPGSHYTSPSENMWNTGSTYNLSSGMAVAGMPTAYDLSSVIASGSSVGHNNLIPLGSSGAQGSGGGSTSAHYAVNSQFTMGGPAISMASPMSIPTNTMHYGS

SMILES	IC50
CNCC(O)COc1cccc(-c2nc(-c3ccncc3)c(C)c(N(C)C3CCOCC3)n2)c1 (centres unmarked) [Example 537-1a]	< 100 nM
CNCC(O)COc1cccc(-c2nc(N3CCC[C@H](O)C3)cc(N(C)C3CCOCC3)n2)c1 (some centres unmarked) [Example 538-1a]	< 100 nM
CNCC(O)COc1cccc(-c2nc(-c3ccnc(OC)c3)cc(N(C)C3CCOCC3)n2)c1 (centres unmarked) [Example 541-1a]	< 100 nM
CNCC(O)COc1cccc(-c2nc(N(C)C3CCOCC3)cc(-n3cccn3)n2)c1 (centres unmarked) [Example 542-1a]	< 100 nM
CNCC(O)COc1cccc(-c2nc(N(C)C3CCOCC3)cc(N3C[C@@H]4C[C@H]3CN4C)n2)c1 (some centres unmarked) [Example 543-1a]	< 100 nM
CNCC(O)COc1cccc(-c2nc(C(C)=O)c(C)c(N(C)C3CCOCC3)n2)c1 (centres unmarked) [Example 544-1a]	< 100 nM
CNCC(O)COc1cccc(-c2nc(C(=O)NCC3CCOCC3)cc(N(C)C3CCOCC3)n2)c1 (centres unmarked) [Example 548-1a]	< 100 nM
CNCC(O)COc1cccc(-c2nc(N3CCN(C)C(=O)C3)cc(N(C)C3CCOCC3)n2)c1 (centres unmarked) [Example 549-1a]	< 100 nM
CNCC(O)COc1cccc(-c2nc(N3CC4(CCNCC4)c4ccccc43)cc(N(C)C3CCOCC3)n2)c1 (centres unmarked) [Example 559-1a]	< 100 nM
CNCC(O)COc1cccc(-c2nc(N3CCNCC3)c(C)c(N(C)C3CCOCC3)n2)c1 (centres unmarked) [Example 560-1a]	< 100 nM
CNCC(O)COc1cc(Cl)cc(-c2nc(-c3cnc4ccccn34)c(C)c(N(C)C3CCOCC3)n2)c1 (centres unmarked) [Example 561-1a]	< 100 nM
CNCC(O)COc1cccc(-c2nc(N(C)C3CCOCC3)cc(N3C[C@H]4C[C@@H]3CN4)n2)c1 (some centres unmarked) [Example 562-1a]	< 100 nM
CNCC(O)COc1cccc(-c2nc(-c3cnc4n3CCNC4)cc(N(C)C3CCOCC3)n2)c1 (centres unmarked) [Example 563-1a]	< 100 nM
CNCC(O)COc1cccc(-c2nc(-c3cnc4ccnn4c3)cc(N(C)C3CCOCC3)n2)c1 (centres unmarked) [Example 564-1a]	< 100 nM
CCOC(=O)c1sc(-c2cc(N(C)C3CCOCC3)nc(-c3cccc(OCC(O)CNC)c3)n2)nc1C (centres unmarked) [Example 565-1a]	< 100 nM
CNCC(O)COc1cccc(-c2nc(N3CC4CCC(C3)O4)cc(N(C)C3CCOCC3)n2)c1 (centres unmarked) [Example 566-1a]	< 100 nM
CNCC(O)COc1cccc(-c2nc(N(C)C3CCOCC3)c(C)c(N3CCNC[C@@H]3C)n2)c1 (some centres unmarked) [Example 567-1a]	< 100 nM
CNCC(O)COc1cccc(-c2nc(N(C)C3CCOCC3)cc(-n3nc(C)cc3C)n2)c1 (centres unmarked) [Example 568-1a]	< 100 nM
CNCC(O)COc1cccc(-c2nc(-c3sc(C)nc3C)cc(N(C)C3CCOCC3)n2)c1 (centres unmarked) [Example 569-1a]	< 100 nM
CNCC(O)COc1cccc(-c2nc(-c3cc4ccccc4o3)cc(N(C)C3CCOCC3)n2)c1 (centres unmarked) [Example 570-1a]	< 100 nM
CNC[C@@H](O)COc1cccc(-c2nc(-c3c[nH]c4ncncc34)cc(N(C)C3CCOCC3)n2)c1 [Example 571-1a]	< 100 nM
CNCC(O)COc1cccc(-c2nc(-c3cnc(CO)n3C)cc(N(C)C3CCOCC3)n2)c1 (centres unmarked) [Example 572-1a]	< 100 nM
CNCC(O)COc1cccc(-c2nc(SC)cc(N(C)C3CCOCC3)n2)c1 (centres unmarked) [Example 573-1a]	< 100 nM
CNCC(O)COc1cc(Cl)cc(-c2nc(-c3ccncc3)c(C3CC3)c(N(C)C3CCOCC3)n2)c1 (centres unmarked) [Example 574-1a]	< 100 nM
CNCC(O)COc1cccc(-c2nc(N3CCNC(=O)C3)cc(N(C)C3CCOCC3)n2)c1 (centres unmarked) [Example 575-1a]	< 100 nM
CNCC(O)COc1cccc(-c2nc(N3CCN4C(=O)OC[C@@H]4C3)cc(N(C)C3CCOCC3)n2)c1 (some centres unmarked) [Example 576-1a]	< 100 nM
CNCC(O)COc1cc(Cl)cc(-c2nc(C(=O)N(C)CC3CCOCC3)cc(N(C)C3CCOCC3)n2)c1 (centres unmarked) [Example 577-1a]	< 100 nM

SMILES	IC50
CNCC(O)COc1cccc(-c2nc(N3CCN(CCF)[C@@H](C)C3)cc(N(C)C3CCOCC3)n2)c1 (some centres unmarked) [Example 578-1a]	< 100 nM
CNCC(O)COc1cccc(-c2nc(N3CCC4(CCO4)CC3)cc(N(C)C3CCOCC3)n2)c1 (centres unmarked) [Example 579-1a]	< 100 nM
CNCC(O)COc1cccc(-c2nc(-c3cncn3C)cc(N(C)C3CCOCC3)n2)c1 (centres unmarked) [Example 580-1a]	< 100 nM
CNCC(O)COc1cccc(-c2nc(N3CCN(C(=O)OC)[C@@H](C)C3)cc(N(C)C3CCOCC3)n2)c1 (some centres unmarked) [Example 581-1a]	< 100 nM
CNCC(O)COc1cc(Cl)cc(-c2nc(-c3ccnc(N(C)C)c3)cc(N(C)C3CCOCC3)n2)c1 (centres unmarked) [Example 609-1a]	< 100 nM
CNCC(O)COc1cc(Cl)cc(-c2nc(-c3cnn(C)c3)cc(N(C)C3CCOCC3)n2)c1 (centres unmarked) [Example 610-1a]	< 100 nM
CNCC(O)COc1cc(Cl)cc(-c2nc(-c3ccncc3)c(Br)c(N(C)C3CCOCC3)n2)c1 (centres unmarked) [Example 611-1a]	< 100 nM
CNCC(O)COc1cc(Cl)cc(-c2nc(-c3cnc4ccccc4n3)c(C)c(N(C)C3CCOCC3)n2)c1 (centres unmarked) [Example 612-1a]	< 100 nM
CNCC(O)COc1cccc(-c2nc(-c3ccc(C(F)(F)F)nc3)cc(N(C)C3CCOCC3)n2)c1 (centres unmarked) [Example 613-1a]	< 100 nM
CNCC(O)COc1cc(Cl)cc(-c2nc(-c3ccc(N(C)C)nc3)c(C)c(N(C)C3CCOCC3)n2)c1 (centres unmarked) [Example 614-1a]	< 100 nM
CNCC(O)COc1cccc(-c2nc(C3CCNCC3)cc(N(C)C3CCOCC3)n2)c1 (centres unmarked) [Example 615-1a]	< 100 nM
CNCC(O)COc1cccc(-c2nc(-c3cccc4ncccc34)cc(N(C)C3CCOCC3)n2)c1 (centres unmarked) [Example 616-1a]	< 100 nM
CNCC(O)COc1cc(Cl)cc(-c2nc(-c3cn[nH]c3)c(C)c(N(C)C3CCOCC3)n2)c1 (centres unmarked) [Example 617-1a]	< 100 nM
CNCC(O)COc1cc(Cl)cc(-c2nc(N(C)C3CCOCC3)c(C)c(-n3cccn3)n2)c1 (centres unmarked) [Example 618-1a]	< 100 nM
C=C(C)c1cc(N(C)C2CCOCC2)nc(-c2cc(Cl)cc(OCC(O)CNC)c2)n1 (centres unmarked) [Example 619-1a]	< 100 nM
CNCC(O)COc1cccc(-c2nc(-c3cnc4nccn4c3)cc(N(C)C3CCOCC3)n2)c1 (centres unmarked) [Example 620-1a]	< 100 nM
CNCC(O)COc1cccc(-c2nc(C3=CCCC3)cc(N(C)C3CCOCC3)n2)c1 (centres unmarked) [Example 621-1a]	< 100 nM
CNCC(O)COc1cccc(-c2nc(-c3cccc(C#N)c3)cc(N(C)C3CCOCC3)n2)c1 (centres unmarked) [Example 622-1a]	< 100 nM
CNCC(O)COc1cc(Cl)cc(-c2nc(C(=O)OC)cc(N(C)C3CCOCC3)n2)c1 (centres unmarked) [Example 623-1a]	< 100 nM
CNCC(O)COc1cccc(-c2nc(-c3nc(C)cs3)cc(N(C)C3CCOCC3)n2)c1 (centres unmarked) [Example 624-1a]	< 100 nM
CNCC(O)COc1cc(Cl)cc(-c2nc(-c3ccncc3)cc(N3CCOCC3)n2)c1 (centres unmarked) [Example 632-1a]	< 100 nM
CNCC(O)COc1cccc(-c2nc(NC3CCOCC3)c(C)c(N3CCN(C(C)C)CC3)n2)c1 (centres unmarked) [Example 644-1a]	< 100 nM
CNCC(O)COc1cccc(-c2nc(NC3CCOCC3)cc(-c3ccc4c(c3)OCCO4)n2)c1 (centres unmarked) [Example 657-1a]	< 100 nM
CNCC(O)COc1cccc(-c2nc(NC3CCOCC3)cc(-c3ccc(OC)c(OC)c3)n2)c1 (centres unmarked) [Example 658-1a]	< 100 nM
CNCC(O)COc1cc(Cl)cc(-c2nc(NC3CCNCC3)cc(-c3ccncc3)n2)c1 (centres unmarked) [Example 665-1a]	< 100 nM
CNCC(O)COc1cccc(-c2nc(-c3ccncc3)cc(N(C)C3CCNCC3)n2)c1 (centres unmarked) [Example 669-1a]	< 100 nM

— patent US20230279020A9, “CARM1 INHIBITORS AND USES THEREOF” (Epizyme, Inc., priority 2013, published 2023)
